Experimental data from US7988956B2, “Hydrolytically degradable carbamate derivatives of poly(ethylene glycol)” (Nektar Therapeutics, priority 1999, dated 2011).

Legend:
[1] = system: Micrococcus lysodeikticus; experiment: Bioactivity measurement of reversible lysozyme conjugate (Sigma HEW lysozyme protocol, decrease in absorbance at 450 nm); format: biochemical; conditions: 66 mM sodium phosphate buffer pH 6.24
Protocol: Bioactivity of free lysozyme, PEG conjugates of lysozyme and lysozyme recovered from hydrolysis of the conjugates were measured by an assay from the standard protocol of Sigma for hen's egg white (HEW) lysozyme EC.3.2.1.17. A solution containing the unmodified or PEG-modified lysozyme was diluted to 5.5 μg/ml in a 66 mM sodium phosphate buffer (pH 6.24). A suspension of 1.5 mg Micrococcus lysodeikticus in 10 ml of 66 mM phosphate buffer (pH 6.24) was allowed to equilibrate at room temperature until the absorbance at 450 nm was constant. Then 0.1 ml of a lysozyme solution was placed in a 1 cm light path quatz cuvette containing 2.5 ml of the substrate suspension. The decrease in the absorbance at 450 nm was recorded and the activity was determined from the maximum linear rate. Eighty-two percent of lysozyme bioactivity was recovered from the m-PEG-lysozyme conjugate, while the mPEG lysozyme had undetectable bioactivity prior to hydrolysis.

[2] = Hydrolysis of the PEG conjugate of lysozyme monitored by capillary electrophoresis; format: physicochemical; conditions: after hydrolysis for 10 days at pH 7 and 37° C.; CE, FIG. 1 Curve B
Protocol: The conjugates prepared as described above were placed at 37° C. and at room temperature and hydrolysis was monitored by capillary electrophoresis (CE).
CE conditions: A solution of 25 mM phosphate buffer, containing 0.1 mg/ml PEO 600K, pH 2.7 was flushed through the capillary for approximately 15-20 min. A voltage of 15 kV was applied until a smooth baseline was obtained. The 25 mM phosphate buffer solution was again flushed through for approximately 5 min and the capillary was then ready for sample injection. The sample, which was adjusted to pH 2 by a phosphate buffer (0.1 M, pH 2), was injected hydrostatically for about […] at a height of approximately 6 inches. A voltage of 15 kV was applied throughout the run with a current between 24 and 30 μA. The protein and PEG-protein conjugate were detected by a UV monitor at 214 nm. The CE instrument consists of a high-voltage power supply (Spellman CZE1000R), a fused silica capillary (75 μm i.d., 360 μm o.d., Polymicro Technologies, Phoenix, Ariz.) and a linear 200 UV/VIS monitor supplied with a deuterium lamp and a capillary flow cell. The total length of the capillary was 64.5 cm, with a 1 cm optical window at 40 cm from the anode. UV data was retrieved and stored using LabVIEW version 4.0.1 software (National Instruments).

Substance: mPEG-lysozyme conjugate: mPEG-lysozyme conjugate prepared with N-mPEG benzamide-m-succimidyl carbonate; mono, di and tri PEGylated lysozyme
- bioactivity prior to hydrolysis ([1]; PEG conjugate before hydrolysis): undetectable
- lysozyme bioactivity recovered from the conjugate ([1]; lysozyme recovered from hydrolysis of the conjugate): Eighty-two
- free lysozyme released [2]: more than 85%
